Test results published in ChEMBL document CHEMBL2016436, “X-ray crystallographic structure-based design of selective thienopyrazole inhibitors for interleukin-2-inducible tyrosine kinase” (Bioorg Med Chem Lett, 2012).

Columns and labels:
[1] = target: T1, Tyrosine-protein kinase ITK/TSK (Homo sapiens, UniProt Q08881); experiment: Inhibition of recombinant N-terminus His6 tagged Itk (357-620) autophosphorylation expressed in insect Sf9 cells using [33P]ATP by scintillation counting
T1 sequence (Q08881 whole entry): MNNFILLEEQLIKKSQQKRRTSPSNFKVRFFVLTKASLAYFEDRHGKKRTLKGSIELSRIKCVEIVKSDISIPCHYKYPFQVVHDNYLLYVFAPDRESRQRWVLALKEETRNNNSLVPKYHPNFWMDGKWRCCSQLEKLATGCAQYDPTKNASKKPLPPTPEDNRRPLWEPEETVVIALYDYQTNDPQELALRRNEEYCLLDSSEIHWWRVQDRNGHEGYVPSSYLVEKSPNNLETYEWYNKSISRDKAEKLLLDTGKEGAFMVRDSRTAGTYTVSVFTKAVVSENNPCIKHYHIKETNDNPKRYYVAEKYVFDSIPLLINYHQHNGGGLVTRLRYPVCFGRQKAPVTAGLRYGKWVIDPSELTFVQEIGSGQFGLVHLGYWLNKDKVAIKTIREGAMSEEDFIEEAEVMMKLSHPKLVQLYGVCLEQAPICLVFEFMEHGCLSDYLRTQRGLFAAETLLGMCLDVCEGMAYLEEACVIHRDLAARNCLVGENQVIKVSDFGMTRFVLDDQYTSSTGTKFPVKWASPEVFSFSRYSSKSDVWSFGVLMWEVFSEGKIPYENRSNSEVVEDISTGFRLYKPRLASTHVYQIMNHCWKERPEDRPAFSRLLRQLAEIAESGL

[2] = target: Tyrosine-protein kinase Lck (Homo sapiens, UniProt P06239); experiment: Inhibition of Lck autophosphorylation using [33P]ATP by scintillation counting
Tyrosine-protein kinase Lck, sequence (P06239 whole entry): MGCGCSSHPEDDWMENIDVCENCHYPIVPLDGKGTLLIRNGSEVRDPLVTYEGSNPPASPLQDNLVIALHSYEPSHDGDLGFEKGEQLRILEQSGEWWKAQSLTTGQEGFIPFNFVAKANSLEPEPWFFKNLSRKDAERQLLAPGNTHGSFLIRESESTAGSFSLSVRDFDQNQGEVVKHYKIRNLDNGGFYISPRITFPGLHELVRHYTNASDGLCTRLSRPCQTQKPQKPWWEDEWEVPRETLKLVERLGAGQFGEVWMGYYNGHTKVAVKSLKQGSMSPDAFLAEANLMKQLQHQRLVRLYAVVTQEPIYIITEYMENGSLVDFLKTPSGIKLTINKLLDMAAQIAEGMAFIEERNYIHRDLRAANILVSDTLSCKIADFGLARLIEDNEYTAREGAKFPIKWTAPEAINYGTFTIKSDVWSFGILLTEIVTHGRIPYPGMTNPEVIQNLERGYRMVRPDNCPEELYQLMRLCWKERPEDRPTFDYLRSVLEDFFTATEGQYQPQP

[3] = target: T2, Tyrosine-protein kinase TXK (Homo sapiens, UniProt P42681); experiment: Inhibition of Txk autophosphorylation using [33P]ATP by scintillation counting
T2 sequence (P42681 whole entry): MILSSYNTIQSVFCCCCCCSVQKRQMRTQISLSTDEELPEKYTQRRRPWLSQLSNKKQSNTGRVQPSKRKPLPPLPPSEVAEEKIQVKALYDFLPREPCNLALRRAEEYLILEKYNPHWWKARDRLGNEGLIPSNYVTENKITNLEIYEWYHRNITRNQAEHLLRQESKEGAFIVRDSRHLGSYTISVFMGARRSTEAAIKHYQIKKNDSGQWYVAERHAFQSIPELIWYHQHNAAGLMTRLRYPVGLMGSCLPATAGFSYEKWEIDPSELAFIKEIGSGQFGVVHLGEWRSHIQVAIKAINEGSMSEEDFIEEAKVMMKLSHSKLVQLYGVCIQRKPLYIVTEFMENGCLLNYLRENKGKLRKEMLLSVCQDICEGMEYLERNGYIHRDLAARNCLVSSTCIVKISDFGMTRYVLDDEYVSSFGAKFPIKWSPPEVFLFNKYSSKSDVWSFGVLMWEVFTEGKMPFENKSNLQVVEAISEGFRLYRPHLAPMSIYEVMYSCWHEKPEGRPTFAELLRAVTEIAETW

[4] = target: Tyrosine-protein kinase SYK (Homo sapiens, UniProt P43405); experiment: Inhibition of recombinant N-terminus His6 tagged Syk (343 to 635) autophosphorylation expressed in insect Sf9 cells using [33P]ATP by scintillation counting

Row | SMILES | IC50 [1] [nM] | IC50 [2] [nM] | IC50 [3] [nM] | IC50 [4] [nM]
1 | Oc1ccc2nc(-c3n[nH]c4ccccc34)[nH]c2c1 | 200 | – | – | –
2 | CC(C)(O)c1ccc2cc(-c3n[nH]c4ccsc34)[nH]c2c1 | 1.9 | 63.9 | 73.8 | –
3 | CCC(O)(CC)c1ccc2cc(-c3n[nH]c4ccsc34)[nH]c2c1 | – | 1100 | 66.5 | 186
4 | CCC(O)(CC)c1cc(OCCN2CCOCC2)c2cc(-c3n[nH]c4ccsc34)[nH]c2c1 | – | 162 | 55.7 | 287
5 | CCC(O)(CC)c1ccc2c(-c3ccc(OC)cc3)c(-c3n[nH]c4ccsc34)[nH]c2c1 | – | 3180 | 241 | 939
6 | CCC(O)(CC)c1ccc2cc(-c3n[nH]c4cc(C(F)F)sc34)[nH]c2c1 | – | 39.2 | 77.5 | –
7 | CCC(O)(CC)c1ccc2cc(-c3n[nH]c4cc(-c5ccccc5)sc34)[nH]c2c1 | – | 203 | 441 | 2470
